Assay results taken from US20230051589A1, “COMPOUNDS AND COMPOSITIONS FOR TREATING CONDITIONS ASSOCIATED WITH NLRP ACTIVITY” (Novartis AG, priority 2018, published 2023).

Each compound was assayed on IL-1β production in PMA-differentiated THP-1 cells (assay: IL-1β production in PMA-differentiated THP-1 cells stimulated with gramicidin (hTHP-1 assay, 2% fetal bovine serum; Procedures 1-3)). Details: Homo sapiens, THP-1, Table B1; hTHP-1 assay containing 2% fetal bovine serum, gramicidin stimulation, IL-1β readout; read-out: hTHP-1 IC50 (average).
Assay type: cell-based, human
Procedure: The following protocol is suitable for testing the activity of the compounds disclosed herein.
Procedure 1: IL-1β Production in PMA-Differentiated THP-1 Cells Stimulated with Gramicidin.
THP-1 cells were purchased from the American Type Culture Collection and sub-cultured according to instructions from the supplier. Cells were cultured in complete RPMI 1640 (containing 10% heat inactivated FBS, penicillin (100 units/ml) and streptomycin (100 μg/ml)), and maintained in log phase prior to experimental setup. Prior to the experiment, compounds were dissolved in dimethyl sulfoxide (DMSO) to generate a 30 mM stock. The compound stock was first pre-diluted in DMSO to 3, 0.34, 0.042 and 0.0083 mM intermediate concentrations and subsequently spotted using Echo550 liquid handler into an empty 384-well assay plate to achieve desired final concentration (e.g. 100, 33, 11, 3.7, 1.2, 0.41, 0.14, 0.046, 0.015, 0.0051, 0.0017 μM). DMSO was backfilled in the plate to achieve a final DMSO assay concentration of 0.37%. The plate was then sealed and stored at room temperature until required.
THP-1 cells were treated with PMA (Phorbol 12-myristate 13-acetate) (20 ng/ml) for 16-18 hours. On the day of the experiment the media was removed and adherent cells were detached with trypsin for 5 minutes. Cells were then harvested, washed with complete RPMI 1640, spun down, and resuspended in RPMI 1640 (containing 2% heat inactivated FBS, penicillin (100 units/ml) and streptomycin (100 μg/ml). The cells were plated in the 384-well assay plate containing the spotted compounds at a density of 50,000 cells/well (final assay volume 50 μl). Cells were incubated with compounds for 1 hour and then stimulated with gramicidin (5 μM) (Enzo) for 2 hours. Plates were then centrifuged at 340 g for 5 min. Cell free supernatant (40 μL) was collected using a 96-channel PlateMaster (Gilson) and the production of IL-1β was evaluated by HTRF (cisbio). The plates were incubated for 18 h at 4° C. and read using the preset HTRF program (donor emission at 620 nm, acceptor emission at 668 nm) of the SpectraMax i3x spectrophotometer (Molecular Devices, software SoftMax 6). A vehicle only control and a dose titration of CRID3 (100-0.0017 μM) were run concurrently with each experiment.
Procedure 2: IL-1β Production in PMA-Differentiated THP-1 Cells Stimulated with Gramicidin.
THP-1 cells were purchased from the American Type Culture Collection and sub-cultured according to instructions from the supplier. Prior to experiments, cells were cultured in complete RPMI 1640 (containing 10% heat inactivated FBS, penicillin (100 units/ml) and streptomycin (100 μg/ml)), and maintained in log phase prior to experimental setup. Prior to the experiment THP-1 were treated with PMA (Phorbol 12-myristate 13-acetate) (20 ng/ml) for 16-18 hours. Compounds were dissolved in dimethyl sulfoxide (DMSO) to generate a 30 mM stock. On the day of the experiment the media was removed and adherent cells were detached with trypsin for 5 minutes. Cells were then harvested, washed with complete RPMI 1640, spun down, resuspended in RPMI 1640 (containing 2% heat inactivated FBS, penicillin (100 units/ml) and streptomycin (100 μg/ml) . The cells were plated in a 384-well plate at a density of 50,000 cells/well (final assay volume 50 μl). Compounds were first dissolved in assay medium to obtain a 5× top concentration of 500 μM. 10 step dilutions (1:3) were then undertaken in assay medium containing 1.67% DMSO. 5× compound solutions were added to the culture medium to achieve desired final concentration (e.g. 100, 33, 11, 3.7, 1.2, 0.41, 0.14, 0.046, 0.015, 0.0051, 0.0017 μM). Final DMSO concentration was at 0.37%. Cells were incubated with compounds for 1 hour and then stimulated with gramicidin (5 μM) (Enzo) for 2 hours. Plates were then centrifuged at 340 g for 5 min. Cell free supernatant (40 μL) was collected using a 96-channel PlateMaster (Gilson) and the production of IL-1β was evaluated by HTRF (cisbio). […]

Q: For `C[C@@](O)(CO)c1cc(F)c([S@](N)(=O)=NC(=O)Nc2c3c(c(C#N)c4c2CCC4)CCC3)s1` (single isomer, unassigned) [Compound 411a], which IC50 is on record?
A: 40 to 200 nM

Q: Which IC50 does the source give for `CNCc1cc(F)c(S(N)(=O)=NC(=O)Nc2c3c(cc4c2CCC4)CCC3)s1` (single isomer, unassigned) [Compound 412a] here?
A: 40 to 200 nM

Q: With `CN1CCc2cc(S(N)(=O)=NC(=O)Nc3c4c(cc5c3CCC5)CCC4)sc2C1` (single isomer, unassigned) [Compound 413a] as the compound, how does the IC50 read?
A: 40 to 200 nM

Q: Which IC50 does the source give for `Cc1oc(S(N)(=O)=NC(=O)Nc2c3c(cc4c2CCC4)CCC3)cc1C(C)(C)O` (single isomer, unassigned) [Example 3] here?
A: 200 to 1000 nM

Q: How did the IC50 turn out when `Cc1oc(S(N)(=O)=NC(=O)Nc2c3c(cc4c2CCC4C)CCC3)cc1C(C)(C)O` (single isomer, unassigned) [Example 125] was run?
A: 40 to 200 nM

Q: With `C#CCCC(=O)N(C)Cc1ccc(S(N)(=O)=NC(=O)Nc2c3c(cc4c2CCC4)CCC3)cc1` (single isomer, unassigned) [Example 312, (S) or (R)-N-(4-(N′-((1,2,3,5,6,7-hexahydro-s-indacen-4-yl)carbamoyl)-sulfamidimidoyl)benzyl)-N-methylpent-4-ynamide] as the compound, how does the IC50 read?
A: 1000 to 5000 nM

Q: `CC1CCc2c1cc1c(c2NC(=O)N=[S@@](N)(=O)c2cnc(C(C)(C)O)s2)CCC1` (single isomer, unassigned) [Example 323, (R, R) or (R, S)-2-(2-hydroxypropan-2-yl)-N′-((1-methyl-1,2,3,5,6,7-hexahydro-s-indacen-4-yl)carbamoyl)thiazole-5-sulfonimidamide] was tested. Which IC50 did it give?
A: 40 to 200 nM

Q: `CCc1ccc2cn(C)nc2c1NC(=O)N=S(N)(=O)c1ncc(C(C)(C)O)s1` (single isomer, unassigned) [Example 329, (S) or (R)-N′-((6-ethyl-2-methyl-2H-indazol-7-yl)-carbamoyl)-5-(2-hydroxy-propan-2-yl)thiazole-2-sulfonimidamide] was tested. Which IC50 did it give?
A: > 30000 nM

Same assay, conditions: Homo sapiens, THP-1, Table B3; hTHP-1 assay containing 2% fetal bovine serum, gramicidin stimulation, IL-1β readout; read-out: hTHP-1 IC50

Q: For `C[C@](O)(COCCOCc1ccccc1)c1ccc([S@@](N)(=O)=NC(=O)Nc2c3c(cc4c2CCC4)CCC3)s1` (racemic) [Example 746, (S)-5-((S)-1-(2-(benzyloxy)ethoxy)-2-hydroxypropan-2-yl)-N′-((1,2,3,5,6,7-hexahydro-s-indacen-4-yl)carbamoyl)thiophene-2-sulfonimidamide], which IC50 is on record?
A: 200 to 1000 nM

Q: `C[C@](O)(COCCOCc1ccccc1)c1ccc(S(N)(=O)=NC(=O)Nc2c3c(cc4c2CCC4)CCC3)s1` (mixture of isomers) [Example 747, (S) and (R)-5-((S)-1-(2-(benzyloxy)ethoxy)-2-hydroxypropan-2-yl)-N′-((1,2,3,5,6,7-hexahydro-s-indacen-4-yl)carbamoyl)thiophene-2-sulfonimidamide] was tested. Which IC50 did it give?
A: 200 to 1000 nM

Same assay, conditions: Homo sapiens, THP-1, hTHP-1 assay containing 2% fetal bovine serum, Table B2, given as bound; read-out: IC50

Q: How did the IC50 turn out when `CC(OC(F)F)c1ccc(S(N)(=O)=NC(=O)Nc2c3c(cc4c2CCC4)CCC3)cc1` (mixture of isomers) [Example 639, (R,S) and (S,S)-4-(1-(difluoromethoxy)ethyl)-N′-((1,2,3,5,6,7-hexahydro-s-indacen-4-yl)carbamoyl) benzenesulfonimidamide (mixture of two isomers)] was run?
A: > 30000 nM

Same assay, conditions: Table B1; hTHP-1 assay containing 2% fetal bovine serum, gramicidin stimulation, IL-1β readout; read-out: hTHP-1 IC50 (average)

Q: How did the IC50 turn out when `CC(C)(O)c1ncc(S(N)(=O)=NC(=O)Nc2c3c(cc4c2CCC4)CCC3)s1` (single isomer, unassigned) [Example 5] was run?
A: 200 to 1000 nM

Q: For `CC(C)(O)c1ncc(S(N)(=O)=NC(=O)Nc2c3c(cc4c2CCC4)CCC3)s1` (single isomer, unassigned) [Example 6], which IC50 is on record?
A: 8 to 40 nM

Q: For `CC(C)(O)c1ccc(S(N)(=O)=NC(=O)Nc2c3c(cc4c2CCC4)CCC3)c(F)c1` (single isomer, unassigned) [Example 87], which IC50 is on record?
A: 40 to 200 nM

Q: Which IC50 does the source give for `CC(C)(O)c1csc(S(N)(=O)=NC(=O)Nc2c3c(c(Cl)c4c2CCC4)CCC3)c1` (single isomer, unassigned) [Example 89] here?
A: 8 to 40 nM

Q: For `CC(C)c1cc(C#N)c(F)c(C(C)C)c1NC(=O)N=S(N)(=O)c1cnc(C(C)(C)O)s1` (single isomer, unassigned) [Example 91], which IC50 is on record?
A: 40 to 200 nM

Q: How did the IC50 turn out when `CC(C)n1ccc(S(N)(=O)=NC(=O)Nc2c3c(cc4c2CCC4)CCC3)n1` (single isomer, unassigned) [Example 93] was run?
A: 40 to 200 nM

Q: For `CNS(=O)(=NC(=O)Nc1c2c(c(F)c3c1CCC3)CCC2)c1cc(C(C)(C)O)cs1` (single isomer, unassigned) [Example 181], which IC50 is on record?
A: 5000 to 30000 nM

Q: `CC(C)c1cc(C#N)cc(C(C)C)c1NC(=O)N=S(N)(=O)c1cc(C(C)(C)O)cc(C(C)(C)O)c1` (single isomer, unassigned) [Example 198, N′-((4-cyano-2,6-diisopropylphenyl)carbamoyl)-3,5-bis(2-hydroxypropan-2-yl)benzenesulfonimidamide] was tested. Which IC50 did it give?
A: 5000 to 30000 nM

Q: For `C#CCCC(=O)N(C)Cc1ccc(S(N)(=O)=NC(=O)Nc2c3c(cc4c2CCC4)CCC3)cc1` (single isomer, unassigned) [Example 313, (R) or (S)-N-(4-(N′-((1,2,3,5,6,7-hexahydro-s-indacen-4-yl)carbamoyl)-sulfamidimidoyl)benzyl)-N-methylpent-4-ynamide], which IC50 is on record?
A: 1000 to 5000 nM

Q: For `CCc1ccc2cn(C)nc2c1NC(=O)N=S(N)(=O)c1ncc(C(C)(C)O)s1` (single isomer, unassigned) [Example 330, (R) or (S)-N′-((6-ethyl-2-methyl-2H-indazol-7-yl)-carbamoyl)-5-(2-hydroxy-propan-2-yl)thiazole-2-sulfonimidamide], which IC50 is on record?
A: > 30000 nM

Q: With `CC(C)(O)c1ncc(S(N)(=O)=NC(=O)Nc2c3c(cc4c2CCC4=O)CCC3)s1` (single isomer, unassigned) [Example 336, (R) or (S)-2-(2-Hydroxy-propan-2-yl)-N′-((1-oxo-1,2,3,5,6,7-hexahydro-s-indacen-4-yl)carbamoyl)-thiazole-5-sulfonimidamide] as the compound, how does the IC50 read?
A: 200 to 1000 nM

Q: `CC(C)(O)c1ncc(S(N)(=O)=NC(=O)Nc2c3c(cc4c2CCC4O)CCC3)s1` (single isomer, unassigned) [Example 338, (R, S) or (R, R)-N′-((1-hydroxy-1,2,3,5,6,7-hexa-hydro-s-indacen-4-yl)-carbamoyl)-2-(2-hydroxy-propan-2-yl)thiazole-5-sulfonimidamide] was tested. Which IC50 did it give?
A: 1000 to 5000 nM

Same assay, conditions: hTHP-1 assay containing 2% fetal bovine serum, Table B2, class symbols; read-out: IC50

Q: For `CC(O)(CO)c1ncc(S(N)(=O)=NC(=O)Nc2c3c(c(C#N)c4c2CCC4)CCC3)s1` (mixture of isomers) [Example 635, (R,S) and (S,S)-N′-((8-cyano-1,2,3,5,6,7-hexahydro-indacen-4-yl)carbamoyl)-2-(1,2-dihydroxypropan-2-yl)thiazole-5-sulfonimidamide (mixture of two isomers)], which IC50 is on record?
A: 5000 to 30000 nM

Q: Which IC50 does the source give for `NS(=O)(=NC(=O)Nc1c2c(cc3c1CCC3)CCC2)c1ccc(C2CCCN2)cc1` (mixture of isomers) [Example 649, (S,R) or (R,R) and (S,S) or (R,S)-N′-((1,2,3,5,6,7-hexahydro-s-indacen-4-yl)carbamoyl)-4-(pyrrolidin-2-yl) benzenesulfonimidamide (mixture of two isomers)] here?
A: 5000 to 30000 nM
